Source: article PMC4933725, “Traxoprodil, a selective antagonist of the NR2B subunit of the NMDA receptor, potentiates the antidepressant-like effects of certain antidepressant drugs in the forced swim test in mice” (Metabolic Brain Disease, 2016)
Counter-ions that a name gives are not always drawn. Each block holds one compound with its values, some of them ahead of it.

Key:
mice [1] = experiment: Spontaneous locomotor activity (Opto-Varimex-4 Auto-Track); assay type: in vivo, Albino Swiss mice; conditions: for Distance traveled: mean ± SEM; for effects on locomotor activity: administered either alone or combined together, doses of Table 2 (traxoprodil 10 and 20 mg/kg), two-way ANOVA
Description: In order to avoid the risk of obtaining the false positive/negative effects in the FST caused by a possible influence of the tested drugs on the locomotor activity, spontaneous locomotor activity was measured using an animal activity meter Opto-Varimex-4 Auto-Track (Columbus Instruments, USA). The device consists of four transparent cages with a lid (43 × 43 × 32 cm), a set of four infrared emitters (each emitter has 16 laser beams), and four detectors monitoring animal movements. Each mouse was placed individually into the cage for 10 min. Spontaneous locomotor activity was evaluated between the 2nd and the 6th min, which corresponds with the time interval analyzed in the FST.
The results obtained in this test were presented as an arithmetic average distance (given in cm) traveled by a mouse ± SEM for each experimental group.

mice [2] = experiment: Forced swim test (FST) in mice; assay type: in vivo, Albino Swiss mice; conditions: for immobility time in FST vs control group: Fig. 1
Description: Each mouse was placed individually into a glass cylinder (height 25 cm, diameter 10 cm) containing 12–15 cm of water at 23–25 °C. The animal was left in the cylinder for 6 min. The total duration of immobility was recorded during the last 4 min of the 6-min testing period. The mouse was judged to be immobile when it ceased struggling and remained floating motionless in the water, making only the movements necessary to keep its head above the water level.

[3] = Determination of antidepressants and traxoprodil in brains by HPLC; conditions: for Antidepressants concentration in brain / concentration at 60 min: 60 min before decapitation, mean ± SEM; for change of concentration in brain tissue after joint administration with traxoprodil: traxoprodil 10 mg/kg co-administered, Student's t-test vs drug + saline; for concentration at 60 min: Albino Swiss, mouse, brain, intraperitoneal
Description: Sixty minutes following administration of studied antidepressant drugs with or without traxoprodil, mice were decapitated to collect brains for pharmacokinetic studies. Immediately after the decapitation, the brains were dissected from the skull, washed with 0.9 % NaCl and frozen at −25 °C.
Brain concentrations of the studied antidepressants and traxoprodil were assayed by high performance liquid chromatography (HPLC) methods. The brains were homogenized in distilled water (1 : 4, w/v) with a tissue homogenizer TH220 (Omni International, Inc., Warrenton, VA, USA). For all studied antidepressant drugs, the extraction from brain homogenates were performed using the mixture of ethyl acetate : hexane (30 : 70, v/v). Amitriptyline (2 μg/ml) was used as an internal standard (IS) for imipramine and paroxetine (200 ng/ml) for fluoxetine and escitalopram. In order to isolate imipramine and its metabolite desipramine, to brain homogenate (0.5 ml) containing these drugs the IS was added and the samples were alkalized with 250 μl of 4 M NaOH. Then the samples were extracted with 5 ml of the extraction reagent by shaking for 20 min (IKA Vibrax VXR, Germany). After centrifugation at 3000 rpm for 20 min (Universal 32, Hettich, Germany), the organic layer was transferred to a new tube containing a 200 μl solution of 0.1 M H2SO4 and methanol (90 : 10, v/v), shaken for 0.5 h and then centrifuged for 15 min (3000 rpm). The organic layer was discarded and a 50 μl aliquot of the acidic solution was injected into the HPLC system. In the case of escitalopram, the procedure was similar with the exception that the extraction with an organic reagent was repeated two times, 1 ml of brain homogenate was used, and the volume of the acidic phase was 100 μl. In turn, to 1 ml of brain homogenates containing fluoxetine the IS was added and the samples were alkalized with 500 μl of 4 M NaOH. After the addition of 1 ml of the concentrated NaCl solution (10 g/50 ml), the samples were vortexed for 15 s and 5 ml of the extraction reagent was added. Then the samples were shaken for 20 min and centrifuged for 15 min at 3000 rpm. After the centrifugation, the organic layer was transferred into a conical glass tube and evaporated to dryness at 37 °C under a gentle stream of nitrogen in a water bath. The residue was dissolved with 100 μl of methanol and 50 μl of this solution was injected into the HPLC system.
The HPLC system (Thermo Separation Products, San Jose, CA, USA) consisted of a P100 isocratic pump, a UV100 variable-wavelength UV/VIS detector, a Rheodyne 7125 injector (Rheodyne, Cotati, CA, USA) with a 50 μl sample loop, and a Chromjet SP4400 computing integrator.
All analyses were performed on a 250 × 4.0 mm LiChrospher®100 RP-18 column with a particle size of 5 μm (Merck, Darmstadt, Germany) protected with a guard column (4 × 4 mm) with the same packing material. The mobile phase consisting of 50 mM potassium dihydrogen phosphate buffer (pH = 4.5) and acetonitrile was mixed at a ratio of 60 : 40 (v/v) for imipramine and fluoxetine, and 65 : 35 (v/v) for escitalopram and run at 1 ml/min. Chromatographic analysis was carried out at 21 °C and the analytical wavelength of 227 nm for fluoxetine, 240 nm for escitalopram, and 214 nm for imipramine.
In order to determine traxoprodil concentrations in mice brain, to 1 ml of brain homogenate containing this compound 2 ml of methanol was added and the samples were briefly vortexed and then shaken vigorously for 10 min (IKA Vibrax VXR, Germany) to precipitate proteins. After centrifugation for 20 min at 3000 rpm the supernatant (2 ml) was transferred into a conical glass tube and evaporated to dryness at 45 °C under a gentle stream of nitrogen in a water bath. The residue was dissolved with 100 μl of methanol and 40 μl of this solution were injected into the HPLC system.

mice [4] = system: mice; parameters: method as in Poleszak et al. [2013]; conditions: ref Poleszak et al. [2013]; cited from earlier work

Compound: N[C@@H](Cc1ccc(Cl)cc1)C(=O)O (racemic) [p-CPA, p-chlorophenylalanine]
Distance traveled (mice [1]; Table 2 (E): p-CPA 200 mg/kg i.p. once daily over three days + saline): 656.4 ± 107.4 cm
effects on locomotor activity (mice [1]): no statistically significant effects
immobility time in FST (mice [2]; p-CPA 200 mg/kg i.p. per 3 days, alone, Fig. 3a): no effect

Compound: COc1ccccc1N1CCN(CCN(C(=O)C2CCCCC2)c2ccccn2)CC1 [WAY 100,635]
Distance traveled (mice [1]; Table 2 (F): WAY 0.1 mg/kg + saline i.p.): 639.0 ± 59.16 cm
effects on locomotor activity (mice [1]): no statistically significant effects
immobility time in FST (mice [2]; WAY 100,635 0.1 mg/kg i.p. alone, Fig. 3b): no effect

Antidepressants concentration in brain ([3]; imipramine 15 mg/kg + saline i.p., n=10): (101.0 ± 19.86) ng/g
Antidepressants concentration in brain ([3]; imipramine 15 mg/kg + traxoprodil 10 mg/kg i.p., n=10): (724.0 ± 109.0***) ng/g
change of concentration in brain tissue after joint administration with traxoprodil [3]: significant increase
Compound: CNCCCN1c2ccccc2CCc2ccccc21 [desipramine]

concentration at 60 min ([3]; 2 mg/kg, Antidepressants concentration in brain, escitalopram 2 mg/kg + saline i.p., n=10): 296 ± 17.7 ng/g
concentration at 60 min ([3]; Antidepressants concentration in brain, escitalopram 2 mg/kg + traxoprodil 10 mg/kg i.p., n=10): 361 ± 20.5 ng/g
change of concentration in brain tissue after joint administration with traxoprodil [3]: significant increase
Compound: CN(C)CCC[C@@]1(c2ccc(F)cc2)OCc2cc(C#N)ccc21 [escitalopram, escitalopram oxalate]
Distance traveled (mice [1]; Table 2 (C): escitalopram 2 mg/kg + saline i.p.): 957.1 ± 174.1 cm
effects on locomotor activity (mice [1]): no statistically significant effects
immobility time in FST (mice [2]; escitalopram 2 mg/kg given alone i.p., Fig. 2c): no effect

Compound: CNCCC(Oc1ccc(C(F)(F)F)cc1)c1ccccc1 (centres unmarked) [fluoxetine, fluoxetine hydrochloride]
Distance traveled (mice [1]; Table 2 (B): fluoxetine 5 mg/kg + saline i.p.): 667.8 ± 111.1 cm
effects on locomotor activity (mice [1]): no statistically significant effects
immobility time in FST (mice [2]; fluoxetine 5 mg/kg given alone i.p., Fig. 2b): no effect

Compound: CC(C(O)c1ccc(O)cc1)N1CCC(Cc2ccccc2)CC1 (centres unmarked) [ifenprodil]
dose range with antidepressant effect in the FST (mice [4]): 20 to 40 mg/kg

concentration at 60 min ([3]; 15 mg/kg, Antidepressants concentration in brain, imipramine 15 mg/kg + saline i.p., n=10): 2060 ± 253 ng/g
concentration at 60 min ([3]; Antidepressants concentration in brain, imipramine 15 mg/kg + traxoprodil 10 mg/kg i.p., n=10): 3210 ± 374 ng/g
Compound: CN(C)CCCN1c2ccccc2CCc2ccccc21 [imipramine, imipramine hydrochloride]
Distance traveled (mice [1]; Table 2 (A): imipramine 15 mg/kg + saline i.p.): 492.3 ± 57.11 cm
effects on locomotor activity (mice [1]): no statistically significant effects
Distance traveled (mice [1]; imipramine 30 mg/kg i.p. 60 min before test, 2nd-6th min, n=8, Table 1): 653.9 ± 99.38 cm
immobility time in FST (mice [2]; imipramine 15 mg/kg given alone i.p., Fig. 2a): no effect

Compound: CCOc1ccccc1OC(c1ccccc1)C1CNCCO1 (centres unmarked) [reboxetine, reboxetine mesylate]
Distance traveled (mice [1]; Table 2 (D): reboxetine 2.5 mg/kg + saline i.p.): 566.1 ± 54.75 cm
immobility time in FST (mice [2]; reboxetine 2.5 mg/kg given alone i.p., Fig. 2d): no effect

Compound: Cc1nc2sccn2c(=O)c1CCN1CCC(=C(c2ccc(F)cc2)c2ccc(F)cc2)CC1 [ritanserin]
Distance traveled (mice [1]; Table 2 (G): ritanserin 4 mg/kg + saline i.p.): 607.5 ± 79.78 cm
effects on locomotor activity (mice [1]): no statistically significant effects
immobility time in FST (mice [2]; ritanserin 4 mg/kg i.p. alone, Fig. 3c): no effect

concentration at 60 min ([3]; 10 mg/kg, Traxoprodil concentration in brain, traxoprodil 10 mg/kg + saline ip, n=7–8): 76.4 ± 13.5 ng/g
concentration at 60 min ([3]; Traxoprodil concentration in brain, traxoprodil 10 mg/kg + escitalopram 2 mg/kg ip): 249 ± 49.2 ng/g
concentration at 60 min ([3]; Traxoprodil concentration in brain, traxoprodil 10 mg/kg + fluoxetine 5 mg/kg ip): 151 ± 10.3 ng/g
concentration at 60 min ([3]; Traxoprodil concentration in brain, traxoprodil 10 mg/kg + imipramine 15 mg/kg ip): 119 ± 22.5 ng/g
change of traxoprodil concentration in brain ([3]; joint administration with escitalopram vs traxoprodil group, t-test p < 0.01): significant increase
change of traxoprodil concentration in brain ([3]; joint administration with fluoxetine vs traxoprodil group, t-test p < 0.001): significant increase
change of traxoprodil concentration in brain ([3]; joint administration with imipramine vs traxoprodil group, t-test p > 0.05): No statistically significant changes
Compound: C[C@@H]([C@@H](O)c1ccc(O)cc1)N1CCC(O)(c2ccccc2)CC1 [traxoprodil]
Distance traveled (mice [1]; Table 2 (A): traxoprodil 10 mg/kg + saline i.p.): 629.1 ± 79.29 cm
Distance traveled (mice [1]; Table 2 (B): traxoprodil 10 mg/kg + saline i.p.): 629.1 ± 79.29 cm
Distance traveled (mice [1]; Table 2 (C): traxoprodil 10 mg/kg + saline i.p.): 986.8 ± 278.5 cm
Distance traveled (mice [1]; Table 2 (D): traxoprodil 10 mg/kg + saline i.p.): 629.1 ± 79.29 cm
Distance traveled (mice [1]; Table 2 (E): traxoprodil 20 mg/kg + saline i.p.): 731.1 ± 145.1 cm
Distance traveled (mice [1]; Table 2 (F): traxoprodil 20 mg/kg + saline i.p.): 687.5 ± 71.45 cm
Distance traveled (mice [1]; Table 2 (G): traxoprodil 20 mg/kg + saline i.p.): 687.5 ± 71.45 cm
effects on locomotor activity (mice [1]): no statistically significant effects
effect on locomotor activity versus control group (mice [1]; all tested doses (5, 10, 20, and 40 mg/kg), one-way ANOVA): no statistically significant effect
Distance traveled (mice [1]; traxoprodil 5 mg/kg i.p. 60 min before test, 2nd-6th min, n=8, Table 1): 915.0 ± 92.10 cm
Distance traveled (mice [1]; traxoprodil 10 mg/kg i.p. 60 min before test, 2nd-6th min, n=8, Table 1): 738.5 ± 49.93 cm
Distance traveled (mice [1]; traxoprodil 20 mg/kg i.p. 60 min before test, 2nd-6th min, n=8, Table 1): 912.0 ± 75.87 cm
Distance traveled (mice [1]; traxoprodil 40 mg/kg i.p. 60 min before test, 2nd-6th min, n=8, Table 1): 789.1 ± 119.8 cm
FST effect compared with imipramine at an active dose (mice [2]; highest traxoprodil dose used (40 mg/kg) vs imipramine 30 mg/kg): effect similar to the action of imipramine
immobility time in FST vs control group (mice [2]; traxoprodil 5 mg/kg i.p. 60 min before test): no statistically significant effect
immobility time in FST (mice [2]; traxoprodil 10 mg/kg given alone i.p., Fig. 2a): no effect
immobility time in FST vs control group (mice [2]; traxoprodil 10 mg/kg i.p. 60 min before test): no statistically significant effect
immobility time in FST vs control group (mice [2]; traxoprodil 20 mg/kg i.p. 60 min before test): significantly reduced
immobility time in FST (mice [2]; traxoprodil 20 mg/kg i.p., WAY 100,635 experiment, Fig. 3b): significantly reduced
immobility time in FST (mice [2]; traxoprodil 20 mg/kg i.p., p-CPA experiment, Fig. 3a): significantly reduced
immobility time in FST (mice [2]; traxoprodil 20 mg/kg i.p., ritanserin experiment, Fig. 3c): significantly reduced
immobility time in FST vs control group (mice [2]; traxoprodil 40 mg/kg i.p. 60 min before test): significantly reduced
